Measured values as given in patent US8110544B2, “RasGAP derived peptide for selectively killing cancer cells” (Universite de Lausanne, priority 2003, dated 2012).

Tests used:
Type in all cases: cell-based, human
[1] = system: HeLa, U2OS, H-Meso1, MCF-7, HaCat and HUV-EC-C cell lines; assay: Cellular uptake of FITC-labelled peptide (epifluorescence of live cells); conditions: FITC-labelled peptide 20 μM
Experimental: The following cell lines (HeLa, U2OS, H-Meso1, MCF-7, HaCat and HUV-EC-C) were incubated 3 hours at 37° C., 5% CO2 in culture medium with 20 μM FITC-labelled TAT-RasGAP317-326 peptide and then washed three times with culture medium.
Fluorescein isothiocyanate (FITC)-labeling was performed on the sequence β-alanine-[…] (SEQ ID NO: 16) whose side chain Fmoc-protected amino acids were Arg(bpf), Lys(Boc), Gln(Trt), Trp(Boc), Thr(tBu), Asn(Trt), and Asp(OtBu). The peptide was synthesized stepwise on 0.2 mmol Rink Amide AM resin using Fmoc chemistry. The synthesis was monitored by ninhydrin test. After the coupling of β-alanine, the Fmoc group was removed with 20% piperidine in dimethylformamide (DMF). At this stage, a fluorescein group was conjugated to the N-terminus of peptide with FITC (5 fold excess over the substitution of the resin in 4 ml DMF and 1 ml N-ethyldiisopropylamine) to form the fluorescein-derivated peptide.
If a plasmid encoding amino acid 317-326 of RasGAP has the ability to enhance the ability of a drug to kill cancer cells, a synthetic peptide corresponding to the […] should also display this activity provided that it can penetrate cells. […] We first assessed the sensitivity of the cancer cell lines towards increasing concentrations of the three genotoxins (data not shown). […]

[2] = system: cancer cell lines (HeLa, U2OS, MCF-7, and H-Meso1); assay: Genotoxin-induced apoptosis (pycnotic nuclei) in cancer cell lines with or without peptides; conditions: 20 μM peptide
Experimental: Four cancer cell lines (HeLa, U2OS, MCF-7, and H-Meso1) were plated in 6-wells plates and treated with the indicated concentrations of cisplatin, adriamycin and mitoxantrone in the absence or in the presence of either 20 μM MV-TAT48-57 Or TAT-RaSGAP317-326 peptides for 20 hours. The number of cells displaying pycnotic nucleus was then scored. The results correspond to the mean±standard deviation of three independent determinations. Asterisks denote significant differences between the genotoxin-treated cells incubated with TAT-RaSGAP317-326 and those left untreated or incubated with the HIV-TAT48-57 peptide (**, p<0.01; ***, p<0.001).
Apoptosis was determined by scoring the number of cells displaying pycnotic nuclei. Nuclei of live cells were labeled with Hoechst 33342 (10 μg/ml final concentration) for about 5 minutes and the cells were then analyzed (at least 400 cells per condition) using an inverted Leica DMIRB microscope equipped with fluorescence and transmitted light optics. Assessment of apoptosis was performed one day after the transfection or treatment of the cells. In experiment involving transfected cells, pEGFP-C1 was included in the transfection solution to label the transfected cells with GFP. In this case, the extent of apoptosis was assessed in the transfected cells only. […]

NFκB activity = assay: NFκB firefly luciferase reporter assay in U2OS cells; conditions: 20 hours
Experimental: U2OS Cells (1×10^5) were plated in 6 well plates and transfected with 1 μg of a firefly luciferase reporter plasmid for NFκB activity and 0.1 μg of a plasmid encoding the Renilla luciferase. The cells were treated one day later with the indicated concentrations of cisplatin in the absence or in the presence of 20 μM HV-TAT48-57 or TAT-RaSGAP317-326 peptides during 20 hours. The data represent the firefly luciferase activity normalized to the Renilla luciferase activity and expressed as fold increase of the basal NFκB activity obtained in control untreated cells. The results correspond to the mean±standard deviation of three independent determinations. Asterisks denote significant differences between the indicated conditions (**, p<0.01; ***, p<0.001).
(§1) U2OS cells were transfected with 1 μg of a firefly luciferase reporter plasmid for NFκB activity, 0.1 μg of a plasmid encoding the Renilla luciferase, 0.5 μg of a GFP-expressing plasmid (to label the transfected cells), 1 μg of a plasmid encoding IκBαΔN2 that inhibit the NFκB pathway or with 1 μg an empty pcDNA3 vector. The cells were incubated one day later with increasing concentrations of cisplatin in the presence of 20 μM HIV-TAT48-57 or 20 μM TAT-RasGAP317-326 for an additional 20 hour period. The cells were then lysed and the NFκB activity assessed as described in panel A, except that the results were expressed as fold increase of the NFκB activity detected in cells incubated with the control HV-TAT48-57 peptide.
Luciferase assay was performed using the Dual-Luciferase® Reporter Assay from Promega (cat. no E1910). […] The firefly luciferase activity was recorded by mixing 20 μl of the lysate with 25 μl of the LARII Reagent and the Renilla luciferase activity was recorded by adding to the previous mix 25 μl of the Stop & Glo Reagent. For each measurement, light emission was quantified during 12 seconds using a Lumat LB 9501 luminometer (Berthold Technologies, Zurich, Switzerland).

U2OS cells = assay: Apoptosis of transfected (GFP-positive) U2OS cells with or without IκBαΔN2; conditions: 20 μM peptide, IkBαΔN2 expressed, 20 hours
Experimental: as §1
Alternatively, the number of GFP-positive cells displaying pycnotic nucleus was determined. The results correspond to the mean±standard deviation of three independent determinations.
Apoptosis was determined by scoring the number of cells displaying pycnotic nuclei. Nuclei of live cells were labeled with Hoechst 33342 (10 μg/ml final concentration) for about 5 minutes and the cells were then analyzed (at least 400 cells per condition) using an inverted Leica DMIRB microscope equipped with fluorescence and transmitted light optics. […] In this case, the extent of apoptosis was assessed in the transfected cells only.

JNK = assay: Western blot of phospho-JNK in U2OS cells; conditions: 20 μM peptide
Experimental: (§2) U2OS cells (2×10^5) were plated in 6 well plates and treated for the indicated periods of time with the indicated combinations of the HW-TAT48-57 or TAT-RasGAP317-326 peptides (at a 20 μM concentration) and cisplatin (at a 30 μM concentration). Positive controls for JNK and p38 activation were obtained following stimulation of the cells with 1 μg/ml anisomycine during 3 hours and with 0.5 M sorbitol for 30 min, respectively. The quantitations depicted under the Western blots were performed on the 12-hour bands and normalized against the positive controls. The results correspond to the mean±standard deviation of three independent experiments. […]

p38 MAPKs = assay: Western blot of phospho-p38 in U2OS cells; conditions: 20 μM peptide
Experimental: as §2

In the case of “GRKKRRQRRRGGWMWVTNLRTD [TAT-RasGAP317-326]”, the “difference in translocation between non cancer cells and cancer cells” value ([1]; 3 hours) is reported as “No difference in translocation”, the “cellular uptake of the peptide” value ([1]; 3 hours at 37° C., four tumor and two non cancer cell lines) is reported as “efficiently entered all these cell lines” and the “enhancement of the ability of cisplatin, adriamycin and mitoxantrone to kill cancer cell lines” value ([2]; 20 hours, sub-lethal genotoxin concentrations) is reported as “enhanced the ability of cisplatin, adriamycin, and mitoxantrone to kill the tested cancer cell lines”. For the same sequence, the “apoptosis induced in control conditions (no genotoxin)” value ([2]; cancer cell lines) was “did not, or only marginally, induce apoptosis in control conditions”, the “NFkB activation in U2OS cells (single agent)” value (NFκB activity; 20 μM peptide or cisplatin) was “activated” and the “NFkB activation with both cisplatin and peptide” value (NFκB activity; U2OS cells, cisplatin plus 20 μM peptide) was “additive activation of NFkB”. The “potency to enhance cisplatin killing of U2OS cells in presence of NFkB inhibitor” value (U2OS cells) was “unaffected by the NFkB inhibitor”, the “activation of JNK pathway by peptide alone” value (JNK) was “neither the control HIV-TAT48-57 peptide nor the TAT-RasGAP317-326 peptide activated these MAPK pathways” and the “activation of p38 MAPK pathway by peptide alone” value (p38 MAPKs) was “neither the control HIV-TAT48-57 peptide nor the TAT-RasGAP317-326 peptide activated these MAPK pathways”.
